Experimental findings from PMC3914206 are described below.

Common to all, as to format: binding
Holding throughout (conditions): Compound Concentration 10 µM

The target of assay [1] is T1, panel of 442 kinases (Homo sapiens, UniProt P42336).
T1 construct: purchased KINOMEscan
An excerpt: (§1) We assessed the selectivity of members of this scaffold using the KINOMEscan methodology across a near comprehensive panel of 442 kinases [[18,27]].

The target of assay [2] is T2, panel of 442 kinases (Homo sapiens, UniProt P42684).
T2 construct: purchased KINOMEscan
Text: as §1

Assay [3] addresses T3, panel of 442 kinases (Homo sapiens, UniProt P07949).
T3 construct: purchased KINOMEscan
Text: as §1

Assay [4] concerns the target T4, panel of 442 kinases (Homo sapiens, UniProt Q8N5S9).
T4 construct: purchased KINOMEscan
Text: as §1

T2 sequence (P42684 whole entry): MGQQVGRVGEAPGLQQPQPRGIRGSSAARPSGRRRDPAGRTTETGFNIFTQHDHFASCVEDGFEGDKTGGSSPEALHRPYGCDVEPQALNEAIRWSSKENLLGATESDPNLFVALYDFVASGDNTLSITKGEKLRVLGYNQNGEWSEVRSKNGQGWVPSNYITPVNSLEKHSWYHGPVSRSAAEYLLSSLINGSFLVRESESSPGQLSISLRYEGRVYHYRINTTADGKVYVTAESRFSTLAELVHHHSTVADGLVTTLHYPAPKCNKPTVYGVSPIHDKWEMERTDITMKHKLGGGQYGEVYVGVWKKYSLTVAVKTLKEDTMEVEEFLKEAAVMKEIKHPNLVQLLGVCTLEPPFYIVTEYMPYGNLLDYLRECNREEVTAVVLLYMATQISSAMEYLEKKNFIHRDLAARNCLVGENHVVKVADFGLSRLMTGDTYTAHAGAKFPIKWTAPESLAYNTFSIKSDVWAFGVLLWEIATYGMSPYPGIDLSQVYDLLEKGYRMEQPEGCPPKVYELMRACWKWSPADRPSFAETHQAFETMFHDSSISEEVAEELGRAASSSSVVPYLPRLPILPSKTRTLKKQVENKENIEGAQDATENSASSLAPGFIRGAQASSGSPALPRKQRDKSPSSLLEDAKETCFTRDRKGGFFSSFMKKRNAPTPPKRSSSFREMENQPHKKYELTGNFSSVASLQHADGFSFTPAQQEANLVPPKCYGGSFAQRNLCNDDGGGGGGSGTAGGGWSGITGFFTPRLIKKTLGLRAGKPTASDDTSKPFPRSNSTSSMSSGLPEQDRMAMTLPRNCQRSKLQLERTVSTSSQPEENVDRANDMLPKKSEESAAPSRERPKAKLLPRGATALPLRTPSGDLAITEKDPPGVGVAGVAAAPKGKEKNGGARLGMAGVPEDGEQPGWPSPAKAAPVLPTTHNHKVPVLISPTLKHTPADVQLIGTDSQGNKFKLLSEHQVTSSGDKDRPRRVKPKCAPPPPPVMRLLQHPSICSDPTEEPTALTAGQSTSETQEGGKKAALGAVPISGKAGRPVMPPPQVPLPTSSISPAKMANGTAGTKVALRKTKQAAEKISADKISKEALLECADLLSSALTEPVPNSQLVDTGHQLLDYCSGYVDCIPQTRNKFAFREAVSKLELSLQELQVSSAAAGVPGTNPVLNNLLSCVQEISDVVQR
T3 sequence (P07949 29-1114): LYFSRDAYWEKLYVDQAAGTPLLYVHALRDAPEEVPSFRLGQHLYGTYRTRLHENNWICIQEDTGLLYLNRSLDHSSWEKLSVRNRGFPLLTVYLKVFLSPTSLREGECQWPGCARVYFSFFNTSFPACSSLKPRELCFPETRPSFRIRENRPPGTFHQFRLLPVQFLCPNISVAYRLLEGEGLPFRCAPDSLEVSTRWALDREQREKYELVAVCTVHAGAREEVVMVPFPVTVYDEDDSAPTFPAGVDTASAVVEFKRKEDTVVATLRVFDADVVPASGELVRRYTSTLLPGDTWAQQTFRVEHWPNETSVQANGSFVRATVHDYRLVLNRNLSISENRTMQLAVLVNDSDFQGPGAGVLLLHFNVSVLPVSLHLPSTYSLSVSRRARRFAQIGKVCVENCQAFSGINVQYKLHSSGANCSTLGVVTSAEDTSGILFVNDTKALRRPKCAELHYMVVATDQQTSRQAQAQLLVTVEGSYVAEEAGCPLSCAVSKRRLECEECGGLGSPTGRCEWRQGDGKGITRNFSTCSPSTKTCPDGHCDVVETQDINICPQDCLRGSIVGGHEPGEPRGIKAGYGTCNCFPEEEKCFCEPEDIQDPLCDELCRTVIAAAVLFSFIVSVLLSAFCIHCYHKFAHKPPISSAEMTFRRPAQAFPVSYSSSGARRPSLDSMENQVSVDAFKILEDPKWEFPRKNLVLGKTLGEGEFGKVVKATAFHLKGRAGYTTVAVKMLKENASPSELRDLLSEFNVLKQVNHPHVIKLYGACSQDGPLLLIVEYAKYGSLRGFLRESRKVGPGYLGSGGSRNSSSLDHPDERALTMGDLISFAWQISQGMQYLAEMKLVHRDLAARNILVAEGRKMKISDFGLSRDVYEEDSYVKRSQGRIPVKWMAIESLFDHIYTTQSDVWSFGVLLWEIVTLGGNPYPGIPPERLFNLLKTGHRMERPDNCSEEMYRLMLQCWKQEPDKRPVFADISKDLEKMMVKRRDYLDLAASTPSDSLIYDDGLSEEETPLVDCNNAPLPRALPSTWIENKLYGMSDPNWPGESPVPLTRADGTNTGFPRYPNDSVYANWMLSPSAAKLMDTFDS
T4 sequence (Q8N5S9 whole entry): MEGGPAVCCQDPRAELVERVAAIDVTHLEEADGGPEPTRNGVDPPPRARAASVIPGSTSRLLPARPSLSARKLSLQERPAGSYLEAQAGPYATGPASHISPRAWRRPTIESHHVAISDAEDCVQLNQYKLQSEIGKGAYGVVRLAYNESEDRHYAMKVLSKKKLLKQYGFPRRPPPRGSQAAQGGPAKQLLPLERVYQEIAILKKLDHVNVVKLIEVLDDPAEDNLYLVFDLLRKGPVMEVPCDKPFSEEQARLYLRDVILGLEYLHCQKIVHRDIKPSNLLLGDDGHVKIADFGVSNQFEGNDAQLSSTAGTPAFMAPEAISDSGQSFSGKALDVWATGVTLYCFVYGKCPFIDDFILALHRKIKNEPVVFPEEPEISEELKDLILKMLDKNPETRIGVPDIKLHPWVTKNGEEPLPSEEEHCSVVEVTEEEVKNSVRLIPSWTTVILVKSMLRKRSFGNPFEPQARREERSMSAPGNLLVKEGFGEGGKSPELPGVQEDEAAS
T1 sequence (P42336 whole entry): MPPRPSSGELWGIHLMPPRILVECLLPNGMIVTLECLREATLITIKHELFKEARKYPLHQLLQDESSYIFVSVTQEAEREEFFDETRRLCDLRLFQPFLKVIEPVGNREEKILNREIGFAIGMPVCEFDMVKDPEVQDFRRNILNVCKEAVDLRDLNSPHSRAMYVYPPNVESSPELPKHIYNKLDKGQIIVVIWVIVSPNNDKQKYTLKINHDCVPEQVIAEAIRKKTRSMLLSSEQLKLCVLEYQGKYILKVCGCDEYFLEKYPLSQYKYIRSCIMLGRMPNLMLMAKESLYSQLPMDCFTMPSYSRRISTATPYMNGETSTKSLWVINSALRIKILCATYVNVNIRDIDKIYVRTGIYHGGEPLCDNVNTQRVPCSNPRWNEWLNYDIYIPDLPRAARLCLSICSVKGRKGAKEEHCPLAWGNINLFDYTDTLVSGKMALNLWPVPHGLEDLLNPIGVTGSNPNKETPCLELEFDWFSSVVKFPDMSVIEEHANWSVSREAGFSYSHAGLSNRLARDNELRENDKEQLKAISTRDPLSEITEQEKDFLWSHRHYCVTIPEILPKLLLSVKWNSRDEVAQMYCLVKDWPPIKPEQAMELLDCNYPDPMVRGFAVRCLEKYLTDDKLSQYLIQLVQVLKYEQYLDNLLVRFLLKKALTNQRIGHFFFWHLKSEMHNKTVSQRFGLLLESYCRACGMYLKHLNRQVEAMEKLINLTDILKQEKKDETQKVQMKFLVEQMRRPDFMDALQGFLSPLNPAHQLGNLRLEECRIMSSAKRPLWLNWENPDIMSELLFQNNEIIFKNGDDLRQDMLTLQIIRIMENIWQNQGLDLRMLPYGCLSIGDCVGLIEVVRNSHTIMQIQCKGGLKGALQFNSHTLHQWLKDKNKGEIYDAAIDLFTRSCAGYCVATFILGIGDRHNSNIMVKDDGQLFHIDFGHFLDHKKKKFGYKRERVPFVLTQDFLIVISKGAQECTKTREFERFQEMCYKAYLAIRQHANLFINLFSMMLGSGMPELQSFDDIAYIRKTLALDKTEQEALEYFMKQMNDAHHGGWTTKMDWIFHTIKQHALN

Regarding `COc1cc(C(=O)N2CCC(N3CCN(C)CC3)CC2)ccc1Nc1ncc2c(n1)N(C)c1ccccc1C(=O)N2C` [15 (LRRK2-IN-1)], at panel of 442 kinases [1], the “KINOMEscan: PIK3CA” value amounted to 74. On panel of 442 kinases [2], the “KINOMEscan: ABL2” value is 97. Also, the “KINOMEscan: RET” value on panel of 442 kinases [3] amounted to 100. At panel of 442 kinases [4], the “KINOMEscan: CAMKK1” value was 73.
For the compound `COc1cc(C(=O)N2CCC(N3CCN(C)CC3)CC2)ccc1Nc1ncc2c(n1)N(C1CCCC1)c1ccccc1C(=O)N2C` [Compound 25, 11-cyclopentyl-2-((2-methoxy-4-(4-(4-methylpiperazin-1-yl)piperidine-1-carbonyl)phenyl)amino)-5-methyl-5H-benzo[e]pyrimido[5,4-b][1,4]diazepin-6(11H)-one], on panel of 442 kinases [1], the “KINOMEscan: PIK3CA” value was found to be 100. Further, the “KINOMEscan: ABL2” value at panel of 442 kinases [2] was found to be 100. For the same compound, the “KINOMEscan: RET” value at panel of 442 kinases [3] was determined as 100. At panel of 442 kinases [4], the “KINOMEscan: CAMKK1” value worked out at 99.
Consider `CCOc1cc(C(=O)N2CCC(N3CCN(C)CC3)CC2)ccc1Nc1ncc2c(n1)N(C1CCCC1)c1ccccc1C(=O)N2C` [Compound 26], for which the “KINOMEscan: PIK3CA” value on panel of 442 kinases [1] was 100. At panel of 442 kinases [2], the “KINOMEscan: ABL2” value was determined as 100. The “KINOMEscan: RET” value at panel of 442 kinases [3] was 100. Besides, the “KINOMEscan: CAMKK1” value at panel of 442 kinases [4] is 100.
